US20240139126A1, “NUTRITIONAL COMPOSITIONS FOR SKELETAL MUSCLE” (MITOCHOLINE LTD, priority 0001, published 2024)

How the values were obtained:
primary myotube cultures = experiment: Mitochondrial membrane potential (TMRM fluorescence) in primary myotube cultures; format: cell-based, rat; details: DiSu 50 μM; NAM 20 μM
Experimental: Primary myotube cells were obtained from postnatal day 0-2 (P0-P2) rat pups which were sacrificed by decapitation. Briefly, the rats were immersed in 70% ethanol and the hind-limbs removed under a dissection microscope, in dissection solution containing Dulbecco's Phosphate Buffered Saline (PBS) with penicillin streptomycin (5000 units/ml) and Amphotericin B (2.5 mg/L). The tissues were then digested in 0.2% collagenase solution at 37° C. for 30-40 minutes. The reaction was stopped by adding 2-3 ml fetal bovine serum (FBS), and the tissue suspension was centrifuged at 2010 rpm (700 g) for 10 minutes. The cell pellet was resuspended in pre-warmed growth medium, Dulbecco's modified Eagle's medium (DMEM), containing 20% FBS, 100 i.u./ml penicillin and 200 i.u./ml streptomycin], and plated on 22 mm coverslips that were pre-coated with 0.2% gelatin for 1 hour at 37° C. […]
Tetramethyl rhodamine methyl ester (TMRM) was used to study the changes of the mitochondrial membrane potential (Δψm). […] TMRM fluorescence was excited at 543 nm (HeNe laser), and emission was measured at >560 nm. […] Therefore, the changes in potential are reflected by changes in fluorescence intensity within the mitochondria which is measured after thresholding out the background signal from the cytosol to give a mean value per pixel within the mitochondrial population of a cell. […]

primary myotubes [1] = experiment: Mitophagy/autophagy: co-localization of mitochondria and lysosomes in primary myotubes; format: cell-based, rat; details: blend 50 μM DiSu+20 μM NAM; individual compounds in corresponding molar amounts
Experimental: (§1) Primary Skeletal Muscle Cell culture. Primary myotube cells were obtained from postnatal day 0-2 (P0-P2) rat pups which were sacrificed by decapitation. Briefly, the rats were immersed in 70% ethanol and the hind-limbs removed under a dissection microscope, in dissection solution containing Dulbecco's Phosphate Buffered Saline (PBS) with penicillin streptomycin (5000 units/ml) and Amphotericin B (2.5 mg/L). The tissues were then digested in 0.2% collagenase solution at 37° C. for 30-40 minutes. The reaction was stopped by adding 2-3 ml fetal bovine serum (FBS), and the tissue suspension was centrifuged at 2010 rpm (700 g) for 10 minutes. The cell pellet was resuspended in pre-warmed growth medium, Dulbecco's modified Eagle's medium (DMEM), containing 20% FBS, 100 i.u./ml penicillin and 200 i.u./ml streptomycin], and plated on 22 mm coverslips that were pre-coated with 0.2% gelatin for 1 hour at 37° C. Cells were then cultured in a humidified CO2 incubator (5% CO2 in air) at 37° C. After 2 or 3 days, the medium was changed to a low-serum medium (DMEM containing 10% FBS without antibiotics), and was subsequently renewed every 3 or 4 days. All experiments were performed in vitro between days 2 and 11 in culture when spindle-shaped myoblasts had proliferated and aligned themselves for fusion (˜70% confluency).

[2] = test system: dexamethasone-treated primary myotubes; experiment: Energy capacity of primary myotubes in dexamethasone-induced sarcopenia cell culture model; format: cell-based, rat; details: in words; for time until cell total energy exhaustion and collapse: IAA 20 μM + oligomycin 2 μg/ml; for energy capacity / energy depletion compared to control cells: IAA + oligomycin
Experimental: Primary rat myocyte cultures were prepared as described by Yao G., et al. ((Yao G., et. al. (2011) J Cell Sci v.124: 4194-4202. doi: 10.1242/jcs.088260).
All experiments were performed with 5-11 days cultured cells.
To test energetic capacity of cultures myotubes in atrophic conditions, myocyte cultures were differentiated for 5 days followed incubation in the presence of 1, 10, and 100 μM dexamethasone for 24 h.
All cultures were treated with an inhibitor of the ATP production in cellular cytoplasm via glycolysis, Iodoacetic Acid (IAA) (20 μM), and an inhibitor of the ATP production in mitochondria by oxidative phosphorylation, oligomycin (2 μg/ml). […] The cellular concentration of both cations can be indirectly measured by measuring fluorescence of Mag Fura-2 dye.

primary myotubes [3] = experiment: NADH autofluorescence: redox index and mitochondrial pool of NADH in primary myotubes; format: cell-based, rat; details: blends 100 μM DiSu+40 μM NAM, 50 μM DiSu+20 μM NAM, choline 100 μM, succinate 50 μM
Experimental: as §1
NADH autofluorescence was excited at 351 and measured at 375-470 nm.

[4] = test system: adult onset mitochondrial myopathy patients; parameters: dose or concentration left out as unconfirmed; details: cited from earlier work
mice = details: dietary supplementation; cited from earlier work

Compound | TMRM fluorescence compared to control (primary myotube cultures) | autophagy (co-localization of mitochondria and lysosomes) (primary myotubes [1]) | time until cell total energy exhaustion and collapse [2] | redox index (NADH-dependent mitochondrial respiration) (primary myotubes [3]) | energy capacity / energy depletion compared to control cells [2] | blood and muscle NAD levels, muscle strength and mitochondrial biogenesis [4] | endurance exercise ability (mice)
C[N+](C)(C)CCO.C[N+](C)(C)CCO.O=C([O-])CCC(=O)[O-] [DiSu, dicholine succinate] | increase in TMRM fluorescence | significantly increase autophagy | extended the time until cell total energy exhaustion and collapse | – | – | – | –
NC(=O)c1cccnc1 [NAM, nicotinamide] | increase in TMRM fluorescence | not | – | did not induce significant changes | Neither choline or succinate or NAM treatments had a noticeable effect | increased in all human subjects | –
O=C([O-])CCC(=O)[O-].[Na+].[Na+] [Succinate*, Sodium succinate (salt)] | – | not | – | did not induce significant changes | Neither choline or succinate or NAM treatments had a noticeable effect | – | increased endurance exercise ability
CN(CC(=O)O)C(=N)N [creatine] | – | – | extended the time until cell total energy exhaustion and collapse | – | – | – | –
Choline bitartrate [Choline**] | – | not | – | – | – | – | –
